{"source": "patent US6930088B2", "about": "“Conformationally constrained backbone cyclized somatostatin analogs” (Peptor Ltd., priority 1998, dated 2005)", "key": {"[1]": {"tested_on": "somatostatin receptors (SSTR-1, 2, 3, 4 or 5)", "assay": "Somatostatin receptor subtype selectivity of binding", "parameters": "species or system human", "conditions": "in words", "procedure": "The somatostatin analogs were tested for their potency in inhibition of the binding of ^125I-Tyr^11-SRIF (based on the method described by Raynor et. al., Molecular Pharmacology, 1993, 43, 838-844) to membrane preparations expressing the transmembranal somatostatin receptors (SSTR-1, 2, 3, 4 or 5). The receptor preparations used for these tests were either from the cloned human receptors selectively and stably expressed in Chinese Hamster Ovary (CHO) cells or from cell lines naturally expressing the SSTRs. Typically, cell membranes were homogenated in Tris buffer in the presence of protease inhibitors and incubated for 30-40 minutes with ^125I-Tyr^11-SRIF with different concentrations of the tested sample. The binding reactions were filtered, the filters were washed and the bound radioactivity was counted in gamma counter. Non specific binding was defined as the radioactivity remaining bound in the presence of 1 μM unlabeled SRIF-14.\nIn order to validate positive signals of the binding tests, and to eliminate non-specific signals, samples of irrelevant peptides, such as GnRH, that were synthesized and handled using the same procedures, were tested in the same assays as negative control samples. These samples had no binding activity in any of the assays. Results are shown below in Tables 5 and 6 and FIG. 1."}, "[2]": {"tested_on": "growth hormone (GH) release", "assay": "In-vivo inhibition of growth hormone release", "parameters": "species or system Wistar male rats", "procedure": "Inhibition of growth hormone (GH) release as a result of peptide administration was measured in Wistar male rats.\nAdult male Wistar rats weighing 200-250 g, were maintained on a constant light-dark cycle (light from 8:00 to 20:00 h), temperature (21±3° C.), and relative humidity (55±10%). Laboratory chow and tap water were available ad libitum. On the day of the experiment, rats were anesthetized with Nembutal (IP, 60 mg/kg). Ten minutes after anesthesia, drugs were administered S.C. at 0.01-100 microgram/kg dose. Stimulation of GH was performed by I.V. administration of 0.5 g/kg of L-Arginine through femoral vein. Sampling was carried out following 5 minutes of stimulation, at 15 or 30 minutes after peptide administration. Blood samples were collected form abdominal vena-cava into tubes containing heparin (15 units per ml of blood) and centrifuged immediately. Plasma was separated and kept frozen at −20° C. until assayed. Rat growth hormone (rGH) [^125I] levels were determined by means of a radioimmunoassay kit (Amersham). The standard in this kit has been calibrated against a reference standard preparation (NIH-RP2) obtained from the National Institute of Diabetes and Digestive and Kidney Diseases. All samples were measured in duplicate."}, "[3]": {"assay": "Metabolic bio-stability against degradation by enzyme mixtures", "type": "in vitro ADME", "conditions": "in words; renal homogenate, rat liver homogenate and human serum"}, "[4]": {"assay": "Initial safety testing in dogs", "type": "in vivo", "conditions": "dose 10,000-fold higher then the efficacious dose for inhibiting Growth hormone release", "procedure": "PTR 3173 was tested in various species for its initial safety properties. Under the European Pharmacopoeia requirements for safety testing, it was declared a safe drug candidate at this stage of development."}, "insulin release": {"tested_on": "insulin release", "assay": "In-vivo effect on insulin release", "parameters": "species or system Wistar male rats", "procedure": "Insulin stimulation was induced by IV bolus administration of D-glucose to overnight fasted rats.\nAn in-vivo determination of insulin release as a result of peptide administration was measured in Wistar male rats. […] Time course profiles for […] release under constant experimental conditions were measured.\nMale Wistar rats were fasted overnight. Animals were anesthetized with Nembutal (IP, 60 mg/kg). Ten minutes after anesthesia, drugs were administrated S.C. at 0.01-100 microgram/kg dose 30 minutes before stimulation of insulin secretion performed by I.V. administration of 0.5 g/kg of D-glucose, 5 minutes before blood collection from abdominal Vena-cava. Hormone levels wer measured by RIA."}, "Opiate receptors": {"tested_on": "Opiate receptors", "assay": "Guinea-Pig Ileum met-Enkephalin-evoked twitch contraction", "conditions": "preliminary results"}, "[5]": {"tested_on": "Chromogranin A release from BON-1", "assay": "Inhibition of Chromogranin A release from BON-1", "type": "cell-based", "conditions": "human Carcinoid cell line BON-1", "from_the_text": "Assessment of Chromogranin A release from BON-1 is an important assay aimed at identifying potential anti Carcinoid drugs. Chromagranin A is one of the principal mediators in degranulation of tumor granules, which secrete excessive amounts of vasoactive substances from Carcinoid tumors."}, "glucagon release": {"tested_on": "glucagon release", "assay": "In-vivo effect on glucagon release", "parameters": "species or system Wistar male rats", "procedure": "In-vivo determination of the release of glucogon as a result of peptide administration was measured in Wistar male rats.\nTime course profiles for glucagon release under constant experimental conditions were measured.\nMale Wistar rats were fasted overnight. Animals were anesthetized with Nembutal (IP, 60 mg/kg). Ten minutes after anesthesia, drugs were administrated S.C. at 0.01-100 microgram/kg dose. Stimulation of glucagon secretion was performed by I.V. administration of L-arginine, 0.5 g/kg, 5 minutes before blood collection from portal vein. Hormone concentration was measured by RIA."}, "[6]": {"conditions": "Table 4, physiological selectivity"}}, "note": "“Also recorded” adds a separate entry of the source."}
{"smiles": "C[C@@H](O)[C@@H]1NC(=O)[C@H](CCCCN)NC(=O)[C@@H](Cc2c[nH]c3ccccc23)NC(=O)[C@H](Cc2c[nH]c3ccccc23)NC(=O)[C@H](Cc2ccccc2)NC(=O)CCCNC(=O)CCCN(CC(N)=O)C(=O)[C@H](Cc2ccccc2)NC1=O", "note": "[PTR 3173, GABA*-Phe-Trp-(D)Trp-Lys-Thr-Phe-Gly(C3)-X]", "values": [{"measurement": "somatostatin receptor subtype selectivity", "setting": "[1]", "result": "selective for receptors 2 and 5; also recorded: improved selectivity of binding to the SST receptor subtype SST-R2 and SST-R5"}, {"measurement": "somatostatin receptor subtype selectivity", "setting": "[1]; listed as PTR-3173", "result": "SST-R2+SST-R5"}, {"measurement": "effect on growth hormone release", "setting": "[2]; 100 micrograms per kilogram, L-arginine stimulation, Nembutal anesthesia, FIG. 3", "result": "equipotent inhibitors of growth hormone release in comparison to Octreotide"}, {"measurement": "GH ID50", "setting": "[2]; [6]", "result": 0.1, "unit": "µg/kg"}, {"measurement": "effect on growth hormone (general statement)", "setting": "[2]; in words, no dose stated", "result": "significant inhibition with prolonged duration of action on the Growth Hormone-IGF-1 axis of a similar magnitude as the drug Octreotide; also recorded: potent inhibitor of growth hormone"}, {"measurement": "metabolic bio-stability against degradation by enzymes", "setting": "[3]", "result": "considerable metabolic bio-stability against degradation by enzymes"}, {"measurement": "toxicity signs", "setting": "[4]", "result": "No toxicity signs"}, {"measurement": "effect on insulin release", "setting": "insulin release; 100 micrograms per kilogram, D-glucose stimulation, FIG. 5a", "result": "inactive on insulin"}, {"measurement": "Insulin ID50", "setting": "insulin release; [6]", "result": ">1000", "unit": "µg/kg"}, {"measurement": "effect on insulin release", "setting": "insulin release; dose of up to 1 milligram per kilogram, FIG. 5b", "result": "no appreciable effect on insulin"}, {"measurement": "effect on insulin (general statement)", "setting": "insulin release; in words, no dose stated", "result": "lacks the disadvantages of Octreotide such as inhibition of Insulin secretion; also recorded: no considerable effect on insulin"}, {"measurement": "GH/Insulin", "setting": "insulin release; ratio of ID50 values, Table 4", "result": ">10,000"}, {"measurement": "effect on met-Enkephalin-evoked twitch contraction", "setting": "Opiate receptors", "result": "did not affect met-Enkephalin-evoked twitch contraction"}, {"measurement": "inhibition of Chromogranin A release", "setting": "[5]", "result": "inhibits Chromogranin A release; also recorded: significant anti-release effect; also recorded: equivalent potency with the native hormone Somatostatin"}, {"measurement": "effect on glucagon levels compare to control", "setting": "glucagon release; 100 micrograms per kilogram, FIG. 4", "result": "statistically significant difference in glucagon levels compare to control"}, {"measurement": "Glucagon ID50", "setting": "glucagon release; [6]", "result": ">100", "unit": "µg/kg"}, {"measurement": "effect on glucagon (general statement)", "setting": "glucagon release; in words, no dose stated", "result": "considerably lower affect on the release of glucagon than Octreotide; also recorded: much less activity on glucagon"}, {"measurement": "GH Glucagon", "setting": "glucagon release; ratio of ID50 values, Table 4", "result": ">1,000"}]}
